Patent publication US9686985B2, “Fungicide N-cycloalkyl-N-bicyclicmethylene-carboxamide derivatives” (BAYER INTELLECTUAL PROPERTY GMBH, priority 2012, dated 2017)

Legend:
Sphaerotheca fuliginea = experiment: Example B: in vivo preventive test on Sphaerotheca fuliginea (powdery mildew on cucurbits); settings: table B; 500 ppm; gherkin plants; grading 12 days after contamination
Protocol: Example B: In Vivo Preventive Test on Sphaerotheca fuliginea (Powdery Mildew on Cucurbits) […] Gherkin plants (“Vert petit de Paris” variety), sown in starter cups on a 50/50 peat soil-pozzolana substrate and grown at 24° C., are treated at the Z11 cotyledon stage by spraying with the active ingredient prepared as described above. Plants, used as controls, are treated with the mixture of acetone/tween/DMSO/water not containing the active material. After 24 hours, the plants are contaminated by spraying the cotyledons with an aqueous suspension of Sphaerotheca fuliginea spores (100 000 spores per mL). The spores are collected from infected plants. The contaminated gherkin plants are incubated at about 20° C. and at 70-80% relative humidity. Grading (% of efficacy) is carried out 12 days after the contamination, in comparison with the control plants.

Alternaria brassicae = experiment: Example D: in vivo preventive test on Alternaria brassicae (leaf spot on radish); settings: table D; 500 ppm; radish plants; grading 6 days after contamination
Protocol: Example D: In Vivo Preventive Test on Alternaria brassicae (Leaf Spot on Radish) […] Radish plants (“Pernod Clair” variety), sown in starter cups on a 50/50 peat soil pozzolana substrate and grown at 17° C., are treated at the cotyledon stage by spraying with the active ingredient prepared as described above. Plants, used as controls, are treated with the mixture of acetone/tween/DMSO/water not containing the active material. After 24 hours, the plants are contaminated by spraying the cotyledons with an aqueous suspension of Alternaria brassicae spores (50 000 spores per mL). The spores are collected from a 15-day-old culture. The contaminated radish plants are incubated at 20° C. and at 100% relative humidity. Grading (% of efficacy) is carried out 6 days after the contamination, in comparison with the control plants.

Botrytis cinerea = experiment: Example S: in vivo preventive test on Botrytis cinerea (grey mould); settings: table S; 500 ppm; gherkin plants; grading 4 to 5 days after contamination
Protocol: Example S: In Vivo Preventive Test on Botrytis cinerea (Grey Mould) […] Gherkin plants (“Vert petit de Paris” variety), sown in starter cups on a 50/50 peat soil pozzolana substrate and grown at 24° C., are treated at the Z11 cotyledon stage by spraying with the active ingredient prepared as described above. Plants, used as controls, are treated with the mixture of acetone/tween/DMSO/water not containing the active material. After 24 hours, the plants are contaminated by spraying the cotyledons with an aqueous suspension of cryopreserved Botrytis cinerea spores (50 000 spores per mL). The spores are suspended in a nutrient solution composed of 10 g/L of PDB, 50 g/L of D-Fructose, 2 g/L of NH4NO3 and 1 g/L of KH2PO4. The contaminated gherkin plants are incubated at 17° C. and at 90% relative humidity. Grading (% of efficacy) is carried out 4 to 5 days after the contamination, in comparison with the control plants.

[1] = log P by HPLC on reversed-phase column (EEC Directive 79/831 Annex V.A8); type: physicochemical; settings: for logP: Table 1, HPLC C18, 40° C., 0.1% aqueous formic acid and acetonitrile gradient
Protocol: In table 1, the log P values were determined in accordance with EEC Directive 79/831 Annex V.A8 by HPLC (High Performance Liquid Chromatography) on a reversed-phase column (C 18), using the method described below: Temperature: 40° C.; Mobile phases: 0.1% aqueous formic acid and acetonitrile; linear gradient from 10% acetonitrile to 90% acetonitrile. Calibration was carried out using unbranched alkan-2-ones (comprising 3 to 16 carbon atoms) with known log P values (determination of the log P values by the retention times using linear interpolation between two successive alkanones). lambda-max-values were determined using UV-spectra from 200 nm to 400 nm and the peak values of the chromatographic signals.

Puccinia recondita = experiment: Example R: in vivo preventive test on Puccinia recondita (brown rust on wheat); settings: table R; 500 ppm; wheat plants; grading 12 days after contamination
Protocol: Example R: In Vivo Preventive Test on Puccinia recondita (Brown Rust on Wheat) […] Wheat plants (“Scipion” variety), sown in starter cups on a 50/50 peat soil pozzolana substrate and grown at 22° C., are treated at the 1 leaf stage (10 cm height) by spraying with the active ingredient prepared as described above. Plants, used as controls, are treated with the mixture of acetone/tween/DMSO/water not containing the active material. After 24 hours, the plants are contaminated by spraying the leaves with an aqueous suspension of Puccinia recondita spores (100 000 spores per mL). The spores are collected from an infected plant and are suspended in water containing 2.5 mL/L of Tween 80 at 10%. The contaminated wheat plants are incubated for 24 hours at 20° C. and at 100% relative humidity, and then for 10 days at 20° C. and at 70-80% relative humidity. Grading (% of efficacy) is carried out 12 days after the contamination, in comparison with the control plants.

Septoria tritici = experiment: Example L: in vivo preventive test on Septoria tritici (wheat); settings: table L; 500 ppm; wheat plants; grading 24 days after contamination
Protocol: Example L: In Vivo Preventive Test on Septoria tritici (Wheat) […] Wheat plants (“Scipion” variety), sown in starter cups on a 50/50 peat soil pozzolana substrate and grown at 22° C., are treated at the 1 leaf stage (10 cm height) by spraying with the active ingredient prepared as described above. Plants, used as controls, are treated with the mixture of acetone/tween/DMSO/water not containing the active material. After 24 hours, the plants are contaminated by spraying the leaves with an aqueous suspension of cryopreserved Septoria tritici spores (500 000 spores per mL). The contaminated wheat plants are incubated for 72 hours at 18° C. and at 100% relative humidity, and then for 21 days at 90% relative humidity. Grading (% of efficacy) is carried out 24 days after the contamination, in comparison with the control plants.

Uromyces appendiculatus = experiment: Example G: in vivo preventive test on Uromyces appendiculatus (bean rust); settings: bean plants
Protocol: Example G: In Vivo Preventive Test on Uromyces appendiculatus (Bean Rust) […] Bean plants (“Saxa” variety), sown in starter cups on a 50/50 peat soil pozzolana substrate and grown at 24° C., are treated at the 2 leaf stage (9 cm height) by spraying with the active ingredient prepared as described above. Plants, used as controls, are treated with the mixture of acetone/tween/DMSO/water not containing the active material. After 24 hours, the plants are contaminated by spraying the leaves with an aqueous suspension of Uromyces appendiculatus spores (150 000 spores per mL). The spores are collected from infected plants and are suspended in water containing 2.5 mL/L of Tween 80 at 10%. The contaminated bean plants are incubated for 24 hours at 20° C. and at 100% relative humidity, and then for 10 days at 20° C. and at 70-80% relative humidity. Grading (% of efficacy) is carried out 11 days after the contamination, in comparison with the control plants.

Pyrenophora teres = experiment: Example N: in vivo preventive test on Pyrenophora teres (barley); settings: table N; 500 ppm; barley plants; grading 14 days after contamination
Protocol: Example N: In Vivo Preventive Test on Pyrenophora teres (Barley) […] Barley plants (“Plaisant” variety), sown in starter cups on a 50/50 peat soil pozzolana substrate and grown at 22° C., are treated at the 1 leaf stage (10 cm height) by spraying with the active ingredient prepared as described above. Plants, used as controls, are treated with the mixture of acetone/tween/DMSO/water not containing the active material. After 24 hours, the plants are contaminated by spraying the leaves with an aqueous suspension of Pyrenophora teres spores (12 000 spores per mL). The spores are collected from a 12-day-old culture. The contaminated barley plants are incubated for 48 hours at 20° C. and at 100% relative humidity, and then for 12 days at 20° C. at 70-80% relative humidity. Grading (% of efficacy) is carried out 14 days after the contamination, in comparison with the control plants.

[2] = table G1, 500 ppm, grading 11 days after contamination

SMILES | Efficacy (Sphaerotheca fuliginea) | Efficacy (Alternaria brassicae) | Efficacy (Botrytis cinerea) | logP [1] | Efficacy (Puccinia recondita) | Efficacy (Septoria tritici) | Efficacy (Uromyces appendiculatus; [2]) | Efficacy (Pyrenophora teres) | chromatographic logP [1] | Efficacy (Uromyces appendiculatus; table G2, dose 100 ppm) | Efficacy (Uromyces appendiculatus; table G2, dose 500 ppm)
Cn1nc(C(F)F)c(C(=O)N(CC2CCSc3ccc(Cl)cc32)C2CC2)c1F (centres unmarked) [I.36] | 85% | 100% | 97% | 3.83 | 78% | 79% | 100% | 94% | – | – | –
COc1cccc2c1CCCC2CN(C(=O)c1c(C(F)F)nn(C)c1F)C1CC1 (centres unmarked) [I.26, N-cyclopropyl-3-(difluoromethyl)-5-fluoro-N-[(5-methoxy-1,2,3,4-tetrahydronaphthalen-1-yl)methyl]-1-methyl-1H-pyrazole-4-carboxamide] | 100% | 100% | 100% | – | – | – | – | 100% | 3.65 | – | –
CC1CCC(CN(C(=O)c2c(C(F)F)nn(C)c2F)C2CC2)c2ccccc21 (centres unmarked) [I.24] | 100% | 100% | 100% | 3.96 | 94% | 100% | 100% | 100% | – | – | –
Cn1nc(C(F)F)c(C(=O)N(CC2CC(C)(C)c3ccccc32)C2CC2)c1Cl (centres unmarked) [I.10] | 100% | 92% | – | 4.08 | 88% | 79% | 99% | 86% | – | – | –
Cn1nc(C(F)F)c(C(=O)N(CC2CCc3cc(Cl)ccc32)C2CC2)c1F (centres unmarked) [I.12] | 100% | 100% | – | 3.83 | 81% | 93% | 100% | 100% | – | 19% | 100%
Cn1nc(C(F)F)c(C(=O)N(CC2CCc3ccccc32)C2CC2)c1F (centres unmarked) [I.2] | 100% | 100% | – | 3.35 | 100% | 100% | 100% | 100% | – | 88% | 100%
Cn1nc(C(F)F)c(C(=O)N(CC2CCc3ccc(C(F)(F)F)cc32)C2CC2)c1Cl (centres unmarked) [I.16] | 100% | – | 100% | 4.04 | 88% | 98% | 100% | – | – | – | –
Cn1nc(C(F)F)c(C(=O)N(CC2CCCCc3ccccc32)C2CC2)c1F (centres unmarked) [I.30] | 100% | 100% | 100% | 3.90 | 94% | 100% | 100% | 100% | – | – | –
Cn1nc(C(F)F)c(C(=O)N(CC2CCc3ccc(C(F)(F)F)cc32)C2CC2)c1F (centres unmarked) [I.17] | 100% | – | 100% | 3.87 | 100% | 94% | 100% | 86% | – | – | –
Cn1nc(C(F)F)c(C(=S)N(CC2CC(C)(C)c3ccccc32)C2CC2)c1F (centres unmarked) [I.11] | 100% | 100% | 100% | 4.69 | 94% | 100% | – | 100% | – | – | –
Cn1nc(C(F)F)c(C(=O)N(CC2CSCc3ccccc32)C2CC2)c1F (centres unmarked) [I.34] | 90% | 100% | 100% | 3.21 | – | 93% | – | 94% | – | – | –
Cn1nc(C(F)F)c(C(=O)N(CC2CCc3c(F)cccc32)C2CC2)c1F (centres unmarked) [I.7] | 100% | 97% | – | 3.39 | 94% | 93% | 100% | 97% | – | 98% | 100%
Cn1nc(C(F)F)c(C(=O)N(CC2CCOc3ccccc32)C2CC2)c1F (centres unmarked) [I.31] | 100% | 100% | 100% | 3.00 | 83% | 100% | 94% | 100% | – | – | –
Cn1nc(C(F)F)c(C(=O)N(CC2CCSc3ccc(F)cc32)C2CC2)c1F (centres unmarked) [I.35] | 80% | 88% | 100% | 3.44 | 78% | – | 100% | 98% | – | – | –
Cn1nc(C(F)F)c(C(=S)N(CC2CCc3c(Cl)cc(Cl)cc32)C2CC2)c1F (centres unmarked) [I.20] | 100% | 100% | 75% | 5.22 | 83% | 97% | 100% | 100% | – | – | –
Cn1nc(C(F)F)c(C(=O)N(CC2CCCc3cccc(Cl)c32)C2CC2)c1F (centres unmarked) [I.28] | 100% | 100% | 100% | 4.09 | – | 100% | 88% | 94% | – | – | –
